Experimental data as given in publication PMC5218480 (PLoS ONE, 2017).

Tested on: MV-4-11 cells
Assay: Gene expression microarray analysis (Affymetrix PrimeView) and GSEA
Assay type: cell-based, human
Parameters: RFU PODN (11730768_x_at) / Fold change /veh PODN (11730768_x_at) / RFU LINC00158 (11744669_a_at) / Fold change /veh LINC00158 (11744669_a_at) / RFU DUSP10 (11751237_a_at) / Fold change /veh DUSP10 (11751237_a_at) / RFU ID3 (11757404_x_at) / Fold change /veh ID3 (11757404_x_at) / RFU PLEKHG5 (11737974_s_at) / Fold change /veh PLEKHG5 (11737974_s_at) / RFU LRRC4B (11730491_at) / Fold change /veh LRRC4B (11730491_at) / RFU GIMAP4 (11747438_a_at) / Fold change /veh GIMAP4 (11747438_a_at) / RFU KRT8 (11758183_x_at) / Fold change /veh KRT8 (11758183_x_at) / RFU CNN1 (11734310_a_at) / Fold change /veh CNN1 (11734310_a_at) / RFU VPS37D (11726825_at) / Fold change /veh VPS37D (11726825_at) / RFU C10orf10 (11716522_x_at) / Fold change /veh C10orf10 (11716522_x_at) / RFU KIR2DL2 /// KIR2DL4 /// KIR2DL5A /// KIR2DL5B /// KIR2DS1 /// KIR2DS2 /// KIR2DS3 /// KIR2DS4 /// KIR3DL3 /// KIR3DL3 /// KIR3DS1 (11738374_at) / Fold change /veh KIR2DL2 /// KIR2DL4 /// KIR2DL5A /// KIR2DL5B /// KIR2DS1 /// KIR2DS2 /// KIR2DS3 /// KIR2DS4 /// KIR3DL3 /// KIR3DL3 /// KIR3DS1 (11738374_at) / RFU C1QL1 (11718748_at) / Fold change /veh C1QL1 (11718748_at) / RFU TMPRSS4 (11747572_a_at) / Fold change /veh TMPRSS4 (11747572_a_at) / RFU HAMP (11756126_x_at) / Fold change /veh HAMP (11756126_x_at) / RFU RNFT2 (11725882_a_at) / Fold change /veh RNFT2 (11725882_a_at) / RFU NR4A2 (11747474_a_at) / Fold change /veh NR4A2 (11747474_a_at) / RFU ABCC12 (11746883_a_at) / Fold change /veh ABCC12 (11746883_a_at) / RFU TMEM136 (11760407_x_at) / Fold change /veh TMEM136 (11760407_x_at) / RFU CLDN22 /// WWC2 (11732394_at) / Fold change /veh CLDN22 /// WWC2 (11732394_at) / RFU HLA-DPB1 (11760878_x_at) / Fold change /veh HLA-DPB1 (11760878_x_at) / RFU SPINT1 (11716480_a_at) / Fold change /veh SPINT1 (11716480_a_at) / RFU GAP43 (11754022_s_at) / Fold change /veh GAP43 (11754022_s_at) / RFU A4GNT (11735810_at) / Fold change /veh A4GNT (11735810_at) / RFU PRB3 (11715151_x_at) / Fold change /veh PRB3 (11715151_x_at) / RFU TUBB4B (11761932_at) / Fold change /veh TUBB4B (11761932_at) / RFU CAPN14 (11732068_a_at) / Fold change /veh CAPN14 (11732068_a_at) / RFU TMCC2 (11721928_a_at) / Fold change /veh TMCC2 (11721928_a_at) / RFU IRGQ (11745062_a_at) / Fold change /veh IRGQ (11745062_a_at) / RFU FAM174B (11720279_a_at) / Fold change /veh FAM174B (11720279_a_at) / RFU TMPRSS4 (11748680_a_at) / Fold change /veh TMPRSS4 (11748680_a_at) / RFU FAM212B (11763350_a_at) / Fold change /veh FAM212B (11763350_a_at) / RFU PLEKHG5 (11743358_a_at) / Fold change /veh PLEKHG5 (11743358_a_at) / RFU ZSCAN30 (11745921_a_at) / Fold change /veh ZSCAN30 (11745921_a_at) / RFU CMKLR1 (11741424_a_at) / Fold change /veh CMKLR1 (11741424_a_at) / RFU LOC101060620 /// MAPK8IP1 (11723275_at) / Fold change /veh LOC101060620 /// MAPK8IP1 (11723275_at) / RFU SPTSSB (11747773_x_at) / Fold change /veh SPTSSB (11747773_x_at) / RFU PRSS12 (11739890_at) / Fold change /veh PRSS12 (11739890_at) / RFU BIN1 (11741810_x_at) / Fold change /veh BIN1 (11741810_x_at) / RFU WNT11 (11732464_a_at) / Fold change /veh WNT11 (11732464_a_at) / RFU C10orf10 (11716521_a_at) / Fold change /veh C10orf10 (11716521_a_at) / RFU C5orf56 (11738089_at) / Fold change /veh C5orf56 (11738089_at) / RFU CYB561 (11721691_x_at) / Fold change /veh CYB561 (11721691_x_at) / RFU ANKRD19P (11752326_a_at) / Fold change /veh ANKRD19P (11752326_a_at) / RFU OR2T12 /// OR2T33 /// OR2T8 (11738714_s_at) / Fold change /veh OR2T12 /// OR2T33 /// OR2T8 (11738714_s_at) / RFU VCAN (11748164_a_at) / Fold change /veh VCAN (11748164_a_at) / RFU JSRP1 (11732532_at) / Fold change /veh JSRP1 (11732532_at) / RFU KRTAP10-11 (11738290_x_at) / Fold change /veh KRTAP10-11 (11738290_x_at) / RFU MYO3A (11730013_a_at) / Fold change /veh MYO3A (11730013_a_at) / RFU EBF3 (11725865_a_at) / Fold change /veh EBF3 (11725865_a_at) / RFU CAMK2N1 (11719241_x_at) / Fold change /veh CAMK2N1 (11719241_x_at) / RFU C5orf56 (11738088_a_at) / Fold change /veh C5orf56 (11738088_a_at) / RFU OLFML3 (11715873_a_at) / Fold change /veh OLFML3 (11715873_a_at) / RFU LOC100653217 /// NTM (11731650_a_at) / Fold change /veh LOC100653217 /// NTM (11731650_a_at) / RFU MAPK11 (11762145_a_at) / Fold change /veh MAPK11 (11762145_a_at) / RFU FIZ1 (11724087_x_at) / Fold change /veh FIZ1 (11724087_x_at) / RFU OASL (11726364_x_at) / Fold change /veh OASL (11726364_x_at) / RFU SOX15 (11748057_x_at) / Fold change /veh SOX15 (11748057_x_at) / RFU CD79A (11719716_a_at) / Fold change /veh CD79A (11719716_a_at) / RFU HIST1H1D (11736915_at) / Fold change /veh HIST1H1D (11736915_at) / RFU CASKIN2 (11723855_a_at) / Fold change /veh CASKIN2 (11723855_a_at) / RFU LOC730098 (11760151_x_at) / Fold change /veh LOC730098 (11760151_x_at) / RFU OR4N2 (11742367_at) / Fold change /veh OR4N2 (11742367_at) / RFU PRRT2 (11749266_a_at) / Fold change /veh PRRT2 (11749266_a_at) / RFU SNX32 (11753110_a_at) / Fold change /veh SNX32 (11753110_a_at) / RFU CDHR5 (11726645_a_at) / Fold change /veh CDHR5 (11726645_a_at) / RFU RCAN1 (11760418_a_at) / Fold change /veh RCAN1 (11760418_a_at) / RFU FAM167A (11723789_a_at) / Fold change /veh FAM167A (11723789_a_at) / RFU FAM26E (11764081_at) / Fold change /veh FAM26E (11764081_at) / RFU ISYNA1 (11749810_s_at) / Fold change /veh ISYNA1 (11749810_s_at) / RFU ACY1 (11761880_at) / Fold change /veh ACY1 (11761880_at) / RFU 11764098_at / Fold change /veh 11764098_at / RFU SAMD14 (11745864_x_at) / Fold change /veh SAMD14 (11745864_x_at) / RFU NPB (11741838_a_at) / Fold change /veh NPB (11741838_a_at) / RFU TMPRSS6 (11731388_a_at) / Fold change /veh TMPRSS6 (11731388_a_at) / RFU KRTAP10-2 (11738614_at) / Fold change /veh KRTAP10-2 (11738614_at) / RFU ARHGAP8 /// PRR5-ARHGAP8 (11727945_x_at) / Fold change /veh ARHGAP8 /// PRR5-ARHGAP8 (11727945_x_at) / RFU KRTAP5-7 /// NADSYN1 (11734609_at) / Fold change /veh KRTAP5-7 /// NADSYN1 (11734609_at) / RFU RASL12 (11751679_a_at) / Fold change /veh RASL12 (11751679_a_at) / RFU CDKN2B (11736163_a_at) / Fold change /veh CDKN2B (11736163_a_at) / RFU PRF1 (11729649_at) / Fold change /veh PRF1 (11729649_at) / RFU, ZNF638 /// ZNF638-IT1 / Fold change vs veh, ZNF638 /// ZNF638-IT1 / RFU, PANK3 / Fold change vs veh, PANK3 / RFU, SH3YL1 / Fold change vs veh, SH3YL1 / RFU, ZEB2 / Fold change vs veh, ZEB2 / RFU, NRIP1 / Fold change vs veh, NRIP1 / RFU, PTTG1IP / Fold change vs veh, PTTG1IP / RFU, CAPN2 / Fold change vs veh, CAPN2 / RFU, MED14 / Fold change vs veh, MED14 / RFU, SNORA58 / Fold change vs veh, SNORA58 / RFU, C1orf63 / Fold change vs veh, C1orf63 / RFU, LRRFIP1 / Fold change vs veh, LRRFIP1 / RFU, NDUFAF7 / Fold change vs veh, NDUFAF7 / RFU, SLC12A2 / Fold change vs veh, SLC12A2 / RFU, IBTK / Fold change vs veh, IBTK / RFU, ESF1 / Fold change vs veh, ESF1 / Fold change vs veh, TMEM50B / RFU, TAOK1 / Fold change vs veh, TAOK1 / RFU, ACBD3 / Fold change vs veh, ACBD3 / RFU, TMA16 / Fold change vs veh, TMA16 / RFU, RWDD3 / Fold change vs veh, RWDD3 / RFU, BCAT1 / Fold change vs veh, BCAT1 / RFU, EDEM3 / Fold change vs veh, EDEM3 / RFU, TMEM33 / Fold change vs veh, TMEM33 / RFU, WDR75 / Fold change vs veh, WDR75 / RFU, AHCTF1 / Fold change vs veh, AHCTF1 / RFU, TFRC / Fold change vs veh, TFRC / RFU, ZDHHC17 / Fold change vs veh, ZDHHC17 / RFU, NOM1 / Fold change vs veh, NOM1 / RFU, ARL8B / Fold change vs veh, ARL8B / RFU, ZBTB11 / Fold change vs veh, ZBTB11 / RFU, TAMM41 / Fold change vs veh, TAMM41 / RFU, KIAA1704 /// LOC100996395 / Fold change vs veh, KIAA1704 /// LOC100996395 / RFU, ING1 / Fold change vs veh, ING1 / RFU, TRMT61B / Fold change vs veh, TRMT61B / RFU, FUBP3 / Fold change vs veh, FUBP3 / RFU, TP53 / Fold change vs veh, TP53 / RFU, TNKS2 / Fold change vs veh, TNKS2 / RFU, ZFP14 / Fold change vs veh, ZFP14 / RFU, ACTR2 / Fold change vs veh, ACTR2 / RFU, PPP3R1 / Fold change vs veh, PPP3R1 / RFU, PIK3R1 / Fold change vs veh, PIK3R1 / RFU, HNRNPA1 / Fold change vs veh, HNRNPA1 / RFU, RNF170 / Fold change vs veh, RNF170 / RFU, ZNF28 / Fold change vs veh, ZNF28 / RFU, RNGTT / Fold change vs veh, RNGTT / RFU, OGT / Fold change vs veh, OGT / RFU, BRD1 / Fold change vs veh, BRD1 / RFU, MARS / Fold change vs veh, MARS / RFU, ZNF655 / Fold change vs veh, ZNF655 / RFU, FAHD1 / Fold change vs veh, FAHD1 / RFU, BDP1 / Fold change vs veh, BDP1 / RFU, LRRCC1 / Fold change vs veh, LRRCC1 / RFU, ARID1A / Fold change vs veh, ARID1A / RFU, ZNF146 / Fold change vs veh, ZNF146 / RFU, ZNF330 / Fold change vs veh, ZNF330 / RFU, GPN3 / Fold change vs veh, GPN3 / RFU, C9orf123 / Fold change vs veh, C9orf123 / RFU, N4BP2L2 / Fold change vs veh, N4BP2L2 / RFU, ARFIP1 / Fold change vs veh, ARFIP1 / RFU, FAM179B / Fold change vs veh, FAM179B / RFU, BCL10 / Fold change vs veh, BCL10 / RFU, UHRF1BP1L / Fold change vs veh, UHRF1BP1L / RFU, BET1 / Fold change vs veh, BET1 / RFU, CNOT2 / Fold change vs veh, CNOT2 / RFU, ZNF268 / Fold change vs veh, ZNF268 / Fold change vs veh, ZNF507 / RFU, DGCR2 / Fold change vs veh, DGCR2 / RFU, WDSUB1 / Fold change vs veh, WDSUB1 / Fold change vs veh, HSP90B1 /// MIR3652 / RFU, ADSS / Fold change vs veh, ADSS / RFU, GK / Fold change vs veh, GK / RFU, ZNF148 / Fold change vs veh, ZNF148 / RFU, TAF9 / Fold change vs veh, TAF9 / RFU, SLC1A5 / Fold change vs veh, SLC1A5 / RFU, SLMO2 / Fold change vs veh, SLMO2 / RFU, ABCC4 / Fold change vs veh, ABCC4 / RFU, LOC101060439 /// RAP1B / Fold change vs veh, LOC101060439 /// RAP1B / RFU, RFX7 / Fold change vs veh, RFX7 / RFU, GTPBP10 / Fold change vs veh, GTPBP10 / RFU, CNEP1R1 / Fold change vs veh, CNEP1R1 / RFU, BIVM-ERCC5 /// ERCC5 / Fold change vs veh, BIVM-ERCC5 /// ERCC5 / RFU, ILF3 / Fold change vs veh, ILF3 / RFU 11762660_at / Fold change /veh 11762660_at / RFU VCAN (11757783_s_at) / Fold change /veh VCAN (11757783_s_at) / RFU DDX43 (11728927_at) / Fold change /veh DDX43 (11728927_at) / RFU KRT8 (11758188_x_at) / Fold change /veh KRT8 (11758188_x_at) / RFU NKD1 (11759106_at) / Fold change /veh NKD1 (11759106_at) / RFU SRD5A1 (11742802_a_at) / Fold change /veh SRD5A1 (11742802_a_at) / RFU TPSAB1 /// TPSB2 (11721975_s_at) / Fold change /veh TPSAB1 /// TPSB2 (11721975_s_at) / RFU GSTM3 (11746129_a_at) / Fold change /veh GSTM3 (11746129_a_at) / RFU IL23R (11737362_x_at) / Fold change /veh IL23R (11737362_x_at) / RFU TMEM51 (11727254_a_at) / Fold change /veh TMEM51 (11727254_a_at) / RFU PIWIL2 (11732686_x_at) / Fold change /veh PIWIL2 (11732686_x_at) / RFU ORM1 (11744905_x_at) / Fold change /veh ORM1 (11744905_x_at) / RFU CCDC152 (11743942_at) / Fold change /veh CCDC152 (11743942_at) / RFU ECM1 (11717891_a_at) / Fold change /veh ECM1 (11717891_a_at) / RFU IL23R (11748794_a_at) / Fold change /veh IL23R (11748794_a_at) / RFU TNFAIP8L3 (11732012_x_at) / Fold change /veh TNFAIP8L3 (11732012_x_at) / RFU MBOAT4 (11741988_at) / Fold change /veh MBOAT4 (11741988_at) / RFU 11764193_at / Fold change /veh 11764193_at / RFU TMEM53 (11763286_at) / Fold change /veh TMEM53 (11763286_at) / RFU MAGEB2 (11727129_at) / Fold change /veh MAGEB2 (11727129_at) / RFU TMEM200A (11744735_a_at) / Fold change /veh TMEM200A (11744735_a_at) / RFU CCDC152 (11751479_a_at) / Fold change /veh CCDC152 (11751479_a_at) / RFU FAM211A (11726209_a_at) / Fold change /veh FAM211A (11726209_a_at) / RFU RGS16 (11746705_a_at) / Fold change /veh RGS16 (11746705_a_at) / RFU VCAN (11755009_s_at) / Fold change /veh VCAN (11755009_s_at) / RFU RHOB (11743442_s_at) / Fold change /veh RHOB (11743442_s_at) / RFU RGS16 (11720943_a_at) / Fold change /veh RGS16 (11720943_a_at) / RFU RGS16 (11720944_at) / Fold change /veh RGS16 (11720944_at) / RFU, VPS4B / Fold change vs veh, VPS4B / RFU, CREB1 / Fold change vs veh, CREB1 / RFU, DNAJC13 / Fold change vs veh, DNAJC13 / RFU, GNAQ / Fold change vs veh, GNAQ / RFU, CDK5R1 / Fold change vs veh, CDK5R1 / RFU, ZRANB3 / Fold change vs veh, ZRANB3 / RFU, CUL4A / Fold change vs veh, CUL4A / RFU, CCNY / Fold change vs veh, CCNY / RFU, UFL1 / Fold change vs veh, UFL1 / RFU, COG3 / Fold change vs veh, COG3 / RFU, DIAPH2 / Fold change vs veh, DIAPH2 / RFU, SKA2 / Fold change vs veh, SKA2 / RFU, AFF3 / Fold change vs veh, AFF3 / RFU, LMF1 / Fold change vs veh, LMF1 / RFU, IPO11 / Fold change vs veh, IPO11 / RFU, DFFB / Fold change vs veh, DFFB / RFU, FOXP1 / Fold change vs veh, FOXP1 / RFU, CARD8 / Fold change vs veh, CARD8 / RFU, STRN3 / Fold change vs veh, STRN3 / RFU, ADK / Fold change vs veh, ADK / RFU, RASSF2 / Fold change vs veh, RASSF2 / RFU, WIPF1 / Fold change vs veh, WIPF1 / RFU, LARP1B / Fold change vs veh, LARP1B / RFU, RASA1 / Fold change vs veh, RASA1 / RFU, RB1 / Fold change vs veh, RB1 / RFU, PPFIA1 / Fold change vs veh, PPFIA1 / RFU, MAT2A / Fold change vs veh, MAT2A / RFU, CCT5 / Fold change vs veh, CCT5 / RFU, WDR92 / Fold change vs veh, WDR92 / RFU, CUX1 / Fold change vs veh, CUX1 / RFU, TTC7A / Fold change vs veh, TTC7A / RFU, TMEM135 / Fold change vs veh, TMEM135 / RFU, DEPTOR / Fold change vs veh, DEPTOR / RFU, CPM / Fold change vs veh, CPM / RFU, DNAJB6 / Fold change vs veh, DNAJB6 / RFU, CACNA2D3 / Fold change vs veh, CACNA2D3 / RFU, DTX4 / Fold change vs veh, DTX4 / RFU, TFCP2 / Fold change vs veh, TFCP2 / RFU, GMCL1 /// GMCL1P1 / Fold change vs veh, GMCL1 /// GMCL1P1 / RFU, AEBP2 / Fold change vs veh, AEBP2 / RFU, SNHG1 /// SNORD22 /// SNORD25 /// SNORD26 /// SNORD27 /// SNORD28 /// SNORD29 /// SNORD31 / Fold change vs veh, SNHG1 /// SNORD22 /// SNORD25 /// SNORD26 /// SNORD27 /// SNORD28 /// SNORD29 /// SNORD31 / Fold change (Aza/veh), C12orf56 (ProbeSet 11735607_a_at) / Fold change (ACY-1035/veh), C12orf56 (ProbeSet 11735607_a_at) / Fold change (Aza/veh), FGFR1OP (ProbeSet 11751329_s_at) / Fold change (ACY-1035/veh), FGFR1OP (ProbeSet 11751329_s_at) / Fold change (Aza/veh), VPS36 (ProbeSet 11739960_a_at) / Fold change (ACY-1035/veh), VPS36 (ProbeSet 11739960_a_at) / RFU SYPL1 (11715823_x_at) / Fold change /veh SYPL1 (11715823_x_at) / RFU IGFBP7 (11715501_s_at) / Fold change /veh IGFBP7 (11715501_s_at) / RFU REEP3 (11722064_at) / Fold change /veh REEP3 (11722064_at) / RFU IGLL1 (11728026_x_at) / Fold change /veh IGLL1 (11728026_x_at): dose or concentration left out as unconfirmed
Details: ProbeSet 11723944_a_at; LIST B

SMILES: Nc1ncn([C@@H]2O[C@H](CO)[C@@H](O)[C@H]2O)c(=O)n1 [azacitidine]
- RFU, PTTG1IP: 678.15 RFU
